Test results taken from patent EP4790046A1, “NOVEL COMPOUND DERIVED FROM MYRISTICA FRAGRANS, AND ANTICANCER COMPOSITION COMPRISING SAME” (Korea Institute of Science and Technology, priority 2023, dated 2025).
Where two headings read alike, the source gives them in different places.

Experiments:
23132/87 = test: alamarBlue cell viability (survival rate, IC50), 23132/87; type: cell-based; conditions: 23132/87 (gastric cancer)
Excerpt: (§1) A p-value < 0.05 was considered statistically significant.

SNU-719 = test: alamarBlue cell viability (survival rate, IC50), SNU-719; type: cell-based
Excerpt: as §1

SNU-81 = test: alamarBlue cell viability (survival rate, IC50), SNU-81; type: cell-based
Excerpt: as §1

SNU-C5 = test: alamarBlue cell viability (survival rate, IC50), SNU-C5; type: cell-based
Excerpt: as §1

SW48 = test: alamarBlue cell viability (survival rate, IC50), SW48; type: cell-based; conditions: SW48 (colorectal cancer)
Excerpt: as §1

SNU466 = test: alamarBlue cell viability (survival rate), SNU466; type: cell-based; conditions: SNU466 (glioblastoma), compound 10 µM, 48 hours
Excerpt: as §1

HepG2 = test: alamarBlue cell viability (survival rate), HepG2; type: cell-based; conditions: HepG2 (liver cancer), compound 10 µM, 48 hours
Excerpt: as §1

23132/87 cell line = test: Cell cycle distribution (PI/RNase staining, flow cytometry), 23132/87; type: cell-based; conditions: 48 hours
Protocol: (§2) Cell cycle distribution was analyzed by DNA staining using FxCycle PI/RNase Staining Solution (Invitrogen, USA). The 23132/87 and SW48 cell lines was seeded at densities of 5 × 10^5 and 7 × 10^5cells/well, respectively, in 6-well plates. After 24 hours of culture, cells were starved overnight in serum-free medium. […] Cells were then harvested, fixed with 70% ethanol, and stained with PI/RNase solution. Samples were analyzed by flow cytometry (BD FACSVerse Cell Analyzer and FlowJo software, BD Biosciences, Franklin Lakes, NJ, USA) based on 10,000 events.
(§3) Student's t-test was performed for statistical analysis between the 2 concentrations of the same compound.

SW48 cell line = test: Cell cycle distribution (PI/RNase staining, flow cytometry), SW48; type: cell-based
Protocol: as §2, §3

SW48 cells [1] = test: Apoptosis, Annexin V-FITC/PI staining, flow cytometry, SW48; type: cell-based; conditions: for Apoptosis distribution (%), Q1 / Apoptosis distribution (%), Q2 / Apoptosis distribution (%), Q3 / Apoptosis distribution (%), Q4: 20 hours; for Apoptosis distribution (%), Q2: Annexin V-FITC+/PI+ (late apoptosis and cell death); for Apoptosis distribution (%), Q3: Annexin V-FITC+/PI- (early apoptosis); for Apoptosis distribution (%), Q4: Annexin V-FITC-/PI- (healthy population)
Protocol: 23132/87 and SW48 cells were seeded at densities of 5 × 10^5 and 7 × 10^5 cells/well in a 6-well plate and cultured for 24 hours. […] After treatment, cells were harvested and stained using the Annexin V-FITC Early Apoptosis Detection Kit (6592, Cell Signaling Technology, USA). Flow cytometry (BD FACSVerse Cell Analyzer and FlowJo software, BD Biosciences, USA) was applied to analyze the samples based on 10,000 events.
as §3

caspase-3 and -7 [2] = test: Caspase-3/7 activity assay (Caspase-Glo 3/7), 23132/87 cells; type: cell-based; conditions: for Caspase-3/7 activity: RLU relative to DMSO; for caspase-3/7 RLU increase over DMSO: 23132/87
Protocol: (§4) Apoptosis can be activated and progress through either the intrinsic or extrinsic pathway, but caspase-3, the executioner caspase, is involved in most cases. […] Since this enzyme activity is transient, analysis was performed at two time points: 6 hours and 12 hours post-treatment.
(§5) Specifically, the Caspase-3/7 activity assay was performed with slight modifications to the manufacturer's protocol (Promega, USA). Briefly, cells were seeded at a density of 5 × 10^3 cells/well in a 96-well plate, cultured for 24 hours, and then treated with the compound at an appropriate concentration for 6 or 12 hours. After treatment, Caspase-Glo 3/7 reagent was added in equal volumes to the treated samples. The plate was then shaken and incubated at room temperature for 2 hours. Enzyme activity was determined by measuring relative light units (RLU) using a Varioskan LUX Multimode Microplate Reader (Thermo Fisher Scientific, USA).

caspase-3 and -7 [3] = test: Caspase-3/7 activity assay (Caspase-Glo 3/7), SW48 cells; type: cell-based; conditions: for Caspase-3/7 activity: RLU relative to DMSO; for caspase-3/7 signal higher than DMSO: SW48
Protocol: as §4, §5

23132/87 cells = test: Xenograft mouse model, tumor volume, 23132/87 (gastric cancer); type: in vivo, BALB/c/nu/nu mice; conditions: 10 mg/kg intraperitoneal on alternate days, to day 27
Protocol: (§6) Tumor volume and body weight were measured twice weekly.

SW48 cells [4] = test: Xenograft mouse model, tumor volume, SW48 (colorectal cancer); type: in vivo, BALB/c/nu/nu mice; conditions: 10 mg/kg intraperitoneal on alternate days, to day 27
Protocol: as §6

With `C=CCc1cc(OC)c(O[C@H](C)[C@H](c2ccc(O)c(OC)c2)c2ccc(O)c(C(=O)CCCCCCCCc3ccc(O)cc3)c2O)c(OC)c1` [Compound 3, Myricone C] the IC50 (23132/87; 2.5-40 µM, positive control = doxorubicin) was 2070 nM, the “Cancer cell line survival rate (%)” value (23132/87; compound 10 µM, 48 hours) was 1.77% and the IC50 (SNU-719; SNU719 (gastric cancer), 2.5-40 µM, positive control = doxorubicin) was 2930 nM. The “Cancer cell line survival rate (%)” value (SNU-719; SNU-719 (gastric cancer), compound 10 µM, 48 hours) was 4.30%, the IC50 (SNU-81; SNU81 (colorectal cancer), 2.5-40 µM, positive control = oxaliplatin, read-out: IC50) was 9840 nM and the IC50 (SNU-81; SNU81 cells, compound 2.5-40 µM, read-out: IC50 values) was 9840 nM. For the same molecule, the “Cancer cell line survival rate (%)” value (SNU-81; SNU-81 (colorectal cancer), compound 10 µM, 48 hours) was 47.08%, the “Cancer cell line survival rate (%)” value (SNU-C5; SNU-C5 (colorectal cancer), compound 10 µM, 48 hours) was 2.11% and the IC50 (SNU-C5; SNUC5 (colorectal cancer), 2.5-40 µM, positive control = oxaliplatin, read-out: IC50) was 2540 nM. The IC50 (SNU-C5; SNUC5 cells, compound 2.5-40 µM, read-out: IC50 values) was 2540 nM, the IC50 (SW48; Homo sapiens, 2.5-40 µM, positive control = oxaliplatin) was 2550 nM and the “Cancer cell line survival rate (%)” value (SW48; compound 10 µM, 48 hours) was 0.01%. For the same molecule, the “Cancer cell line survival rate (%)” value (SNU466) was 1.91%, the “Cancer cell line survival rate (%)” value (HepG2) was 1.60% and the “Cell cycle distribution, G1” value (23132/87 cell line; 23132/87, 5 µM) was 63.00%. For the same molecule, the “Cell cycle distribution, G2/M” value (23132/87 cell line; 23132/87, 5 µM) was 6.79%, the “Cell cycle distribution, S” value (23132/87 cell line; 23132/87, 5 µM) was 21.23% and the “Cell cycle distribution, Sub G1” value (23132/87 cell line; 23132/87, 5 µM) was 9.15%. The “Cell cycle distribution, G1” value (23132/87 cell line; 23132/87, 10 µM) was 68.93%, the “Cell cycle distribution, G2/M” value (23132/87 cell line; 23132/87, 10 µM) was 6.19% and the “Cell cycle distribution, S” value (23132/87 cell line; 23132/87, 10 µM) was 14.40%. For the same molecule, the “Cell cycle distribution, Sub G1” value (23132/87 cell line; 23132/87, 10 µM) was 10.45%, the “G1 phase increase compared to DMSO” value (23132/87 cell line; 23132/87, 10 µM) was “about 10%” and the “G2/M phase decrease compared to DMSO” value (23132/87 cell line; 23132/87, 10 µM) was “about 4%”. For the same molecule, the “Cell cycle distribution, G1” value (SW48 cell line; SW48, 5 µM, 48 hours) was 56.63%, the “Cell cycle distribution, G2/M” value (SW48 cell line; SW48, 5 µM, 48 hours) was 8.91% and the “Cell cycle distribution, S” value (SW48 cell line; SW48, 5 µM, 48 hours) was 23.00%. The “Cell cycle distribution, Sub G1” value (SW48 cell line; SW48, 5 µM, 48 hours) was 9.65%, the “Cell cycle distribution, G1” value (SW48 cell line; SW48, 10 µM, 48 hours) was 50.93% and the “Cell cycle distribution, G2/M” value (SW48 cell line; SW48, 10 µM, 48 hours) was 6.13%. For the same molecule, the “Cell cycle distribution, S” value (SW48 cell line; SW48, 10 µM, 48 hours) was 19.30%, the “Cell cycle distribution, Sub G1” value (SW48 cell line; SW48, 10 µM, 48 hours) was 24.17% and the “sub-G1 proportion increase compared to the DMSO control” value (SW48 cell line; SW48, 10 µM, 48 hours) was 7%. The G2 phase (SW48 cell line; SW48, 5 µM) was 8.91% ± 0.24%, the sub-G1 phase ratio (SW48 cell line; SW48, 5 µM) was 9.65% ± 1.02% and the G2 phase (SW48 cell line; SW48, 10 µM) was 6.13% ± 0.47%. The sub-G1 phase ratio (SW48 cell line; SW48, 10 µM) was 24.17% ± 0.98%, the “proportions of the G1, S, and G2/M phases” value (SW48 cell line; SW48, 10 µM, 48 hours, only G2/M decrease statistically significant) was “slightly reduced” and the “Apoptosis distribution (%), Q1” value (SW48 cells [1]; SW48, 5 µM) was 7.41%. For the same molecule, the “Apoptosis distribution (%), Q2” value (SW48 cells [1]; SW48, 5 µM) was 13.80%, the “Apoptosis distribution (%), Q3” value (SW48 cells [1]; SW48, 5 µM) was 13.73% and the “Apoptosis distribution (%), Q4” value (SW48 cells [1]; SW48, 5 µM) was 65.10%. For the same molecule, the “Apoptosis distribution (%), Q1” value (SW48 cells [1]; SW48, 10 µM) was 4.97%, the “Apoptosis distribution (%), Q2” value (SW48 cells [1]; SW48, 10 µM) was 22.43% and the “Apoptosis distribution (%), Q3” value (SW48 cells [1]; SW48, 10 µM) was 18.77%. For the same molecule, the “Apoptosis distribution (%), Q4” value (SW48 cells [1]; SW48, 10 µM) was 53.87%, the Q2 ratio (SW48 cells [1]; SW48, 5 µM) was 13.80% ± 0.65% and the Q3 ratio (SW48 cells [1]; SW48, 5 µM) was 13.73% ± 0.92%. For the same molecule, the “increase in the Q2 population, dose-based comparison” value (SW48 cells [1]; SW48, 5 µM to 10 µM) was “over 8%”, the “Q2 (Annexin V-FITC+/PI+)” value (SW48 cells [1]; SW48, 10 µM) was 22.43% ± 0.30% and the “Q2 increase compared to the control” value (SW48 cells [1]; SW48, 10 µM) was “over 8%”. For the same molecule, the Q3 ratio (SW48 cells [1]; SW48, 10 µM) was 18.77% ± 1.07%, the “Q4 distribution reduction compared to the control group” value (SW48 cells [1]; SW48, 10 µM) was 9.43% and the “apoptotic and dead cell population (Q2 and Q3) increase over DMSO” value (SW48 cells [1]; SW48, 10 µM) was about 10%. The “Q4 ratio reduction on changing the concentration” value (SW48 cells [1]; SW48, from 5 µM to 10 µM) was “approximately 11.23%”, the Caspase-3/7 activity (caspase-3 and -7 [2]; 23132/87, 5 µM, 6 h) was 0.58 fold and the Caspase-3/7 activity (caspase-3 and -7 [2]; 23132/87, 5 µM, 12 h) was 1.74 fold. The Caspase-3/7 activity (caspase-3 and -7 [2]; 23132/87, 10 µM, 6 h) was 1.81 fold, the Caspase-3/7 activity (caspase-3 and -7 [2]; 23132/87, 10 µM, 12 h) was 1.20 fold and the “caspase-3/7 RLU increase over DMSO” value (caspase-3 and -7 [2]; 5 µM, 12 hours) was 1.74 fold. The “caspase-3/7 RLU increase over DMSO” value (caspase-3 and -7 [2]; 10 µM, 6 hours) was 1.81 fold, the Caspase-3/7 activity (caspase-3 and -7 [3]; SW48, 5 µM, 6 h) was 1.10 fold and the Caspase-3/7 activity (caspase-3 and -7 [3]; SW48, 5 µM, 12 h) was 2.37 fold. For the same molecule, the Caspase-3/7 activity (caspase-3 and -7 [3]; SW48, 10 µM, 6 h) was 1.89 fold, the Caspase-3/7 activity (caspase-3 and -7 [3]; SW48, 10 µM, 12 h) was 2.02 fold and the “caspase-3/7 signal higher than DMSO” value (caspase-3 and -7 [3]; high concentration (10 µM), 6 hours) was 2.37 fold. For the same molecule, the “caspase-3/7 signal higher than DMSO” value (caspase-3 and -7 [3]; low concentration (5 µM), 12 hours) was 1.89 fold, the tumor volume (23132/87 cells) was “smallest tumor volume was observed starting on day 13” and the tumor growth (SW48 cells [4]) was “suppressed compared to the control group”.
